Results on 24 molecules are retold here after patent US20180072997A1, “INHIBITORS OF HUMAN IMMUNODEFICIENCY VIRUS REPLICATION” (ViiV HEATHCARE UK (NO.5) LIMITED, priority 2015, published 2018).

Where only a bound is given, the exact number is not on record here.

The subject of data set [1] is recombinant NL4-3 virus (Renilla luciferase in nef) in MT-2 cells. The experiment in a line: whole plant or invertebrate. The format is cell-based, HIV. As to conditions: luciferase activity. Put shortly:
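MT-2 cells infected for 4-5 days with NL4-3 reporter virus (Renilla luciferase replacing part of nef, produced by transfection of 293T cells) in the presence of serial compound dilutions. Antiviral activity quantified by luciferase activity read with a live-cell substrate.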

Another data set concerns uninfected MT2 cells. The experiment in a line: Compound cytotoxicity, XTT-based colorimetric assay. The format is cell-based. The settings on record: day 4, XTT. Put shortly: (§1)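 Run under the antiviral-assay protocol but without virus. Viability was read on day 4 and CC50 values were derived from the readout.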
Assay in data set [2]: as above
Format: cell-based. As to conditions: human, uninfected MT2 cells, day 4, XTT. Put shortly:
as §1

[3] abbreviates: MT-2 cells infected for 4-5 days with recombinant NL4-3 Renilla luciferase virus.
The mark [4] stands for this setting: Renilla, NL43, MT-2 cells infected for 4-5 days with recombinant NL4-3 Renilla luciferase virus.

Regarding `COc1ccc(N(C)C(=O)[C@H](Cc2cc(F)cc(F)c2)NC(=O)C(C)n2c(=O)n(C(C)C(=O)N[C@@H](Cc3cc(F)cc(F)c3)C(=O)N(C)c3ccc(OC)cc3)c3ccccc32)cc1` (single isomer, unassigned) [Example 133], the concentration for a half-maximal effect (EC50) in data set [1] (setting [3]) is 410 nM. Besides, half-maximal cytotoxicity with uninfected MT2 cells (CC50) was put at 13.9 µM.
Turning to `COc1ccc(N(C)C(=O)[C@H](Cc2ccccc2)NC(=O)C=C(C)CC(=O)N[C@@H](Cc2ccccc2)C(=O)N(C)c2ccc(OC)cc2)cc1` (single isomer, unassigned) [Example 114], the half-maximal effective concentration (EC50) in data set [1] (setting [3]) turned out to be 1780 nM. The midpoint of cytotoxicity in the data set with uninfected MT2 cells, the CC50, lay at 27.1 µM.
Regarding `C=CCCN(C(=O)[C@H](Cc1cc(F)cc(F)c1)NC(=O)NS(=O)(=O)N[C@@H](Cc1cc(F)cc(F)c1)C(=O)N(CCC=C)c1ccc2scnc2c1)c1ccc2scnc2c1` (single isomer, unassigned) [Example 142], the EC50 in data set [1] (setting [3]) was found to be 820 nM. Also, the midpoint of cytotoxicity in the data set with uninfected MT2 cells, the CC50, lay at 17.4 µM.
As for `COc1ccc(N(C)C(=O)[C@H](Cc2ccccc2)NC(=O)C(C)n2c(=O)n(C(C)C(=O)N[C@@H](Cc3ccccc3)C(=O)N(C)c3ccc(OC)cc3)c3ccccc32)cc1` (single isomer, unassigned) [Example 134], the concentration giving a half-maximal response (EC50) in data set [1] (setting [3]) was 820 nM. The same molecule had a CC50 with uninfected MT2 cells of 10.8 µM.
Consider `CN(C(=O)[C@H](Cc1cc(F)cc(F)c1)NC(=O)c1cccc(C(=O)N[C@@H](Cc2cc(F)cc(F)c2)C(=O)N(C)c2ccc3scnc3c2)c1Cl)c1ccc2scnc2c1` [Example 82], for which, in data set [1] (setting [4]), the EC50 stood at 70 nM. The same molecule came in with a 50% cytotoxic concentration (CC50) at 4 days in data set [2] of no less than 100 µM.
Regarding `CN(C(=O)[C@H](Cc1cc(F)cc(F)c1)NC(=O)CN1c2ccccc2N(CC(=O)N[C@@H](Cc2cc(F)cc(F)c2)C(=O)N(C)c2ccc3c(c2)ncn3C)S1(=O)=O)c1ccc2c(c1)ncn2C` [Example 209], the EC50 in data set [1] (setting [4]) is 420 nM. The CC50 at 4 days in data set [2] is no less than 100 µM.
In the same order, the values of `COc1ccc(N(C)C(=O)[C@H](Cc2cc(F)cc(F)c2)NC(=O)Cn2c(=O)c3ccccc3n(CC(=O)N[C@@H](Cc3cc(F)cc(F)c3)C(=O)N(C)c3ccc(OC)cc3)c2=O)cc1` [Example 101] are 30 nM and no less than 100 µM.
For the molecule `CN(C(=O)[C@H](Cc1cc(F)cc(F)c1)NC(=O)NS(=O)(=O)N[C@@H](Cc1cc(F)cc(F)c1)C(=O)N(C)c1ccc2snnc2c1)c1ccc2snnc2c1` [Example 177], the concentration for a half-maximal effect (EC50) in data set [1] (setting [4]) is 270 nM. Besides, in data set [2], it took 88 µM to reach half-maximal cytotoxicity (CC50 at 4 days).
The like results for `COc1ccc(N(C)C(=O)[C@H](Cc2ccccc2)NC(=O)Cn2c(=O)c(=O)n(CC(=O)N[C@@H](Cc3ccccc3)C(=O)N(C)c3ccc(OC)cc3)c3ccccc32)cc1` [Example 94] were, in that order, 160 nM and 23.2 µM.
Take `CN(C(=O)[C@H](Cc1cc(F)cc(F)c1)NC(=O)c1ccc(F)c(C(=O)N[C@@H](Cc2cc(F)cc(F)c2)C(=O)N(C)c2ccc(C3CC3)cc2)c1)c1ccc(C2CC2)cc1` [Example 230]: in data set [1] (setting [4]), the EC50 was 20 nM. This molecule came in with a CC50 at 4 days in data set [2] of no less than 100 µM.
On to `C=CCCN(C(=O)[C@H](Cc1cc(F)cc(F)c1)NC(=O)NS(=O)(=O)N[C@@H](Cc1cc(F)cc(F)c1)C(=O)N(CC=C)c1ccc(OC)cc1)c1ccc(OC)cc1` [Example 138], for which the EC50 in data set [1] (setting [4]) was found to be 260 nM. The molecule also gave a CC50 at 4 days in data set [2] of 12.9 µM.
In the case of `COc1ccc(N(CCF)C(=O)[C@H](Cc2cc(F)cc(F)c2)NC(=O)CN2c3ccccc3N(CC(=O)N[C@@H](Cc3cc(F)cc(F)c3)C(=O)N(CCF)c3ccc(OC)cc3)S2(=O)=O)cc1` [Example 122], the 50% effective concentration (EC50) in data set [1] (setting [4]) stood at 90 nM. The 50% cytotoxic concentration (CC50) at 4 days in data set [2] is no less than 100 µM.
Take `COc1ccc(N(C)C(=O)[C@H](Cc2ccccc2)NC(=O)Cn2c(=O)n(CC(=O)N[C@@H](Cc3ccccc3)C(=O)N(C)c3ccc(OC)cc3)c3ccccc32)cc1` [Example 37]: the half-maximal effective concentration (EC50) in data set [1] (setting [4]) worked out at 70 nM. In data set [2], this molecule showed a 50% cytotoxic concentration (CC50) at 4 days of 19.9 µM.
Take `COc1ccc(N(C)C(=O)[C@H](Cc2ccccc2)NC(=O)c2ccc(C(=O)N[C@@H](Cc3ccccc3)C(=O)N(C)c3ccc(OC)cc3)cc2)cc1` [Example 25]: in data set [1] (setting [4]), the EC50 is 1130 nM. The same molecule came in with a 50% cytotoxic concentration (CC50) at 4 days in data set [2] of 3.7 µM.
As to `O=C(N[C@@H](Cc1cc(F)cc(F)c1)c1ncccc1Br)NS(=O)(=O)N[C@@H](Cc1cc(F)cc(F)c1)c1ncccc1Br` [Example 36], in data set [1] (setting [4]), the EC50 is 7270 nM. In data set [2], this molecule returned a half-maximal cytotoxic concentration (CC50) at 4 days of 65.3 µM.
The like results for `COc1ccc(N(C)C(=O)[C@H](Cc2ccccc2)NC(=O)c2cccc(S(=O)(=O)N[C@@H](Cc3ccccc3)C(=O)N(C)c3ccc(OC)cc3)c2)cc1` [Example 108] were, in that order, 720 nM and no less than 100 µM.
Take `COc1ccc(N(C)C(=O)[C@H](Cc2ccccc2)NC(=O)C(C)n2c(=O)n(C(C)C(=O)N[C@@H](Cc3ccccc3)C(=O)N(C)c3ccc(OC)cc3)c3ccccc32)cc1` (single isomer, unassigned) [Example 131]: the EC50 in data set [1] (setting [4]) is 490 nM. The same molecule came in with a CC50 at 4 days in data set [2] of 6.3 µM.
In the same order, the values of `COc1ccc(N(C)C(=O)[C@H](Cc2ccccc2)NC(=O)NS(=O)(=O)N[C@@H](Cc2ccccc2)c2nnc(SC)o2)cc1` [Example 6] are 6780 nM and no less than 100 µM.
Regarding `COc1ccc(N(C)C(=O)[C@H](Cc2cc(F)cc(F)c2)Nc2ncc(-c3cnc(N[C@@H](Cc4cc(F)cc(F)c4)C(=O)N(C)c4ccc(OC)cc4)nc3)cn2)cc1` [Example 88], the EC50 in data set [1] (setting [4]) was determined as 13700 nM. The molecule further gave a cytotoxic concentration (CC50) at 4 days in data set [2] of 20.8 µM.
Turning to `CN(C(=O)[C@H](Cc1cc(F)cc(F)c1)NC(=O)NS(=O)(=O)N[C@@H](Cc1cc(F)cc(F)c1)C(=O)N(C)c1ccc(C2CC2)cc1)c1ccc(C2CC2)cc1` [Example 198], the half-maximal effective concentration (EC50) in data set [1] (setting [4]) is 10 nM. Besides, the CC50 at 4 days in data set [2] was 12.5 µM.
As to `COc1ccc(N(CCF)C(=O)[C@H](Cc2cc(F)cc(F)c2)NC(=O)Cn2c(=O)n(CC(=O)N[C@@H](Cc3cc(F)cc(F)c3)C(=O)N(CCF)c3ccc(OC)cc3)c3ccccc32)cc1` [Example 125], the EC50 in data set [1] (setting [4]) was found to be 340 nM. Further, in data set [2], the CC50 at 4 days was no less than 100 µM.
The like results for `C=CCN(C(=O)[C@H](Cc1cc(F)cc(F)c1)NC(=O)CC(C)(C)CC(=O)N[C@@H](Cc1cc(F)cc(F)c1)C(=O)N(CC=C)c1ccc(OC)cc1)c1ccc(OC)cc1` [Example 171] were, in that order, 100000 nM and no less than 100 µM.
In the same order, the values of `COc1ccc(N(C)C(=O)[C@H](Cc2ccccc2)NC(=O)NC(=O)N[C@@H](Cc2ccccc2)C(=O)N(C)c2ccc(OC)cc2)cc1` [Example 10] are 4710 nM and 10.5 µM.
As to `C=CCN(C(=O)[C@H](Cc1cc(F)cc(F)c1)NC(=O)c1nccnc1C(=O)N[C@@H](Cc1cc(F)cc(F)c1)C(=O)N(CC=C)c1ccc(OC)cc1)c1ccc(OC)cc1` [Example 212], in data set [1] (setting [4]), the EC50 stood at 3730 nM. Besides, in data set [2], the CC50 at 4 days was no less than 100 µM.
